Article PMC7251097, “Aspartate/asparagine-β-hydroxylase: a high-throughput mass spectrometric assay for discovery of small molecule inhibitors” (Scientific Reports, 2020)
Counter-ions that a name gives are not always drawn. Like-named read-outs stand apart in the source and are kept apart here.

Biological target: T1, His6-AspH315–758 (human aspartate/asparagine-β-hydroxylase, AspH) (Homo sapiens, UniProt Q12797)
T1 construct: N-Terminally His6-tagged human AspH315–758 (His6-AspH315–758) was produced in E. coli BL21 (DE3) cells; made in house; host or cells: E. coli BL21 (DE3), pET-28a(+) vector
T1 sequence (Q12797 315-758): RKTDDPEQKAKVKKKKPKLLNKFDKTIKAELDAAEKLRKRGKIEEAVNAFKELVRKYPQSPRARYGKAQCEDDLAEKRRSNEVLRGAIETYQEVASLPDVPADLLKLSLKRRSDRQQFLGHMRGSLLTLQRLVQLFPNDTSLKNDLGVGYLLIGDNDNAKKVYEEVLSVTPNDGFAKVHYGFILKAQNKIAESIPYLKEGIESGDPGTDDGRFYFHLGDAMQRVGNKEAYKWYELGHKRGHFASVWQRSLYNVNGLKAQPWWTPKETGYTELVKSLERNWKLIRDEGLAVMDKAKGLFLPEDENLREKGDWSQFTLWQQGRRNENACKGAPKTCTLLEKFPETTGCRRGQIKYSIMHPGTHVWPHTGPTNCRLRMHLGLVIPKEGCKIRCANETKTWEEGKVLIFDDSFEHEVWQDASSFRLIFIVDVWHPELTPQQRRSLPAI
Experiment: SPE-MS AspH inhibition assay (LOPAC screen at fixed 20 μM and IC50 dose-response), hydroxylation of cyclic peptide hFX-CP101–119
Format: biochemical
Details: for Plate 1 (% inhibition) / Plate 1 (% conversion): LOPAC compound at fixed 20 uM; for Plate 1 (% inhibition): plate 1, normalised to DMSO and 2,4-PDCA controls

[1] = LOPAC compound at 20uM, plate 2, conversion of substrate peptide
[2] = LOPAC compound at 20uM, plate 2, normalised to DMSO and 2,4-PDCA controls, read-out: Plate 2 (% inhibition)
[3] = LOPAC compound at 20uM, plate 2, normalised to DMSO and 2,4-PDCA controls
[4] = LOPAC compound at 20uM, conversion of substrate peptide
[5] = read-out: Plate 2 (% inhibition)

Structure (SMILES)	Plate 2 (% conversion) [1] [%]	inhibition at 20 µM [2] [%]	other results
CCC1(C)CC(=O)NC1=O (stereo not shown) [Ethosuximide]	37.85	-5.65	
CCc1cccc2c3c([nH]c12)C(CC)(CC(=O)O)OCC3 (stereo not shown) [Etodolac]	36.91	-2.84	
C=C1C[C@@H]2[C@H](CC[C@]3(C)C(=O)CC[C@@H]23)[C@@]2(C)C=CC(=O)C=C12 [Exemestane]			Plate 5 (% inhibition): 2.56%; Plate 5 (% conversion) (plate 5 (Pfitzer), test compounds at fixed 20 μM, mean conversion DMSO 32.88): 35.45%
Clc1ccc(N2CCN(Cc3cc4ccccn4n3)CC2)cc1 [FAUC 213]			% inhibition (LOPAC Plate 4, compound at 20 uM): -8.79%; % conversion (LOPAC Plate 4, compound at 20 uM, substrate conversion): 39.47%
COC(=O)c1c(C)[nH]c(C)c1C(=O)c1ccccc1Cc1ccccc1 [FPL 64176]	38.85		Plate 2 (% inhibition) [3]: -8.64%
NC(=O)OCC(COC(N)=O)c1ccccc1 [Felbamate]	34.68	3.82	
CN1CC(=O)NC1=NC(=O)Nc1cccc(Cl)c1 [Fenobam]			Plate 3 (% conversion) [4]: 36.37%
Oc1ccc(C2CNCCc3c2cc(O)c(O)c3Cl)cc1 (stereo not shown) [Fenoldopam bromide, reference compound]	3.05	98.3	inhibition at 20 µM (AspH activity, fixed compound concentration 20 μM, initial LOPAC screen, 0.5%v/v DMSO, read-out: Inhibition at 20 µM [%]): 98.3%
CC(Cc1ccc(O)cc1)NCC(O)c1cc(O)cc(O)c1 (stereo not shown) [Fenoterol hydrobromide]			Plate 2 (% conversion): 38.93%; inhibition at 20 µM [5]: -8.89%
COc1cccc2c1[C@@H]1CN(CCCCn3c(=O)[nH]c4c(sc5ncc(-c6ccccc6)nc54)c3=O)C[C@@H]1CO2 [Fiduxosin hydrochloride]	64.73	-85.9	
Fc1ccc(C(c2ccc(F)cc2)N2CCN(C/C=C/c3ccccc3)CC2)cc1 [Flunarizine dihydrochloride]	46.32	-31	
CNCCC(Oc1ccc(C(F)(F)F)cc1)c1ccccc1 (stereo not shown) [Fluoxetine hydrochloride]	43.85	-23.6	
OCCN1CCN(CCCN2c3ccccc3Sc3ccc(C(F)(F)F)cc32)CC1 [Fluphenazine dihydrochloride]		-81.7	Plate 2 (% conversion): 63.32%
CCOC(=O)Nc1ccc(NCc2ccc(F)cc2)nc1N [Flupirtine maleate]	33.85	6.29	
O=C1NCN(c2ccccc2)C12CCN(CCCC(c1ccc(F)cc1)c1ccc(F)cc1)CC2 [Fluspirilene]	58.99	-68.8	
CC(C)C(=O)Nc1ccc([N+](=O)[O-])c(C(F)(F)F)c1 [Flutamide]	40.61	-13.9	
O=CN(O)CCCP(=O)([O-])O.[Na+] [Fosmidomycin sodium salt hydrate]			Plate 3 (% conversion) [4]: 34.84%
C[C@]12CC[C@@H]3c4ccc(O)cc4C[C@@H](CCCCCCCCC[S+]([O-])CCCC(F)(F)C(F)(F)F)[C@H]3[C@@H]1CC[C@@H]2O (stereo partly shown) [Fulvestrant]			Plate 1 (% inhibition): 12.89%; Plate 1 (% conversion) (substrate conversion): 31.54%
Cc1nc2c([nH]1)c(=O)n(C)c(=O)n2Cc1ccco1 [Furafylline]	36.33	-1.12	
O=C([O-])c1cc2cc(Cc3cccnc3)ccc2o1.[Na+] [Furegrelate sodium]	36.88		Plate 2 (% inhibition) [3]: -2.76%
NS(=O)(=O)c1cc(C(=O)O)c(NCc2ccco2)cc1Cl [Furosemide]		2.67	
CCCCc1ccc(C(=O)O)nc1 [Fusaric acid]			Plate 2 (% conversion): 28.15%; inhibition at 20 µM [5]: 23.3%
CC(=O)O[C@H]1C[C@@]2(C)[C@@H](C[C@@H](O)[C@H]3[C@@]4(C)CC[C@@H](O)[C@@H](C)[C@@H]4CC[C@@]32C)/C1=C(\CCC=C(C)C)C(=O)[O-].[Na+] [Fusidic acid sodium]	40.54		Plate 2 (% inhibition) [3]: -13.68%
NCCCC(=O)O [GABA]			Plate 1 (% inhibition): -1.98%; Plate 1 (% conversion) (substrate conversion): 36.54%
